{"source": "patent US5223169A", "about": "“Hydrolase surfactant systems and their use in laundering” (priority 1991, dated 1993)", "assay_in_all_cases": "pH-stat assay of triglyceride emulsion hydrolysis; critical oil-to-surfactant ratio", "key": {"[1]": {"biological_target": "T1, Enzyme Amano P (Burkholderia cepacia, UniProt P22088)", "T1 construct": "purchased Amano Co", "T1 sequence (P22088 45-364)": "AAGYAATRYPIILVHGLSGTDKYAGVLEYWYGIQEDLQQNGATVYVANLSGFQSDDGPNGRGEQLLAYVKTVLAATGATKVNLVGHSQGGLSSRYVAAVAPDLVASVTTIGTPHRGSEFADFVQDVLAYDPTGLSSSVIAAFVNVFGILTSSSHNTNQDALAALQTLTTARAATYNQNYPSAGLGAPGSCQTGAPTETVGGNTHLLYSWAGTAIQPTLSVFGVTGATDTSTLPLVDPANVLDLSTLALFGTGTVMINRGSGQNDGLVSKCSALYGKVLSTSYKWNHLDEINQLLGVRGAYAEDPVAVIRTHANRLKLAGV", "type": "biochemical, P. fluorescens", "description": "(§1) To determine the critical ratio for any specific enzyme-surfactant combination, aliquots of an aqueous solution, each containing a determined (constant) amount of the enzyme which is effective in the absence of any surfactant to hydrolyze the triglycerides in an oily stain on a determined (constant) amount of a fabric soiled by a determined (constant) amount of a triglyceride oil, are mixed with a determined (constant) amount of a surfactant which is within the range of the amounts conventionally present in home laundry solutions, e.g., from about 0.2 to 1.5. mM, and which is effective to inhibit the hydrolyzing activity of the enzyme. To the aliquots are added a hydrolysis activator, e.g., trioctanoin, in increasing amounts and the hydrolyzing activity of the enzyme in the various solutions is determined.\n(§2) The experiments determining enzyme activity, such as those set out in Tables IA and IB, were carried out as follows:\n(§3) The desired amount of triglyceride was weighed into an appropriate size beaker, on a Mettler balance (model number AE163). The corresponding amount of surfactant was added to the triglyceride, from a previously prepared aqueous surfactant stock solution, and the triglyceride and surfactant mixed manually. The sample was then adjusted to the desired weight using doubly distilled H2 O. Emulsification of the sample was carried out, prior to assaying enzyme activity, with a probe sonicator (Braun-Sonic model 2000), on ice, for approx. 2 minutes.\n(§4) (ii) Enzyme Activity Measurement:\n(§5) This was achieved by monitoring the rate of acid liberation, from the enzymatic hydrolysis of the triglycerides in the emulsion. The assay was initiated by adding approx. 2 ppm lipase to 10 ml of the prepared emulsion. The acid liberated was monitored by autotitration, on a Radiometer pH-stat (model number ABU80) to an endpoint of a pH of 10. Initial rates were recorded for the first 5 minutes of the reaction, and the reaction rates reported as μmole H^+ titrated . min ^-1 mgE^-1. Occasionally enzyme activity is reported as % total oil hydrolyzed in 14 min. In these examples, the reaction was allowed to run for 14 min. and the amount of acid titrated recorded. The % total oil (triglyceride) hydrolyzed was then calculated by dividing the recorded value with the theoretically calculated value assuming three equivalents of oleic acid was produced for each triglyceride equivalent. All assays were run at ambient temperatures."}, "[2]": {"biological_target": "T2, Enzyme Lipolase (Thermomyces lanuginosus, UniProt O59952)", "T2 construct": "purchased Novo Industri; host or cells: Aspergillus oryzae", "T2 sequence (O59952 23-291)": "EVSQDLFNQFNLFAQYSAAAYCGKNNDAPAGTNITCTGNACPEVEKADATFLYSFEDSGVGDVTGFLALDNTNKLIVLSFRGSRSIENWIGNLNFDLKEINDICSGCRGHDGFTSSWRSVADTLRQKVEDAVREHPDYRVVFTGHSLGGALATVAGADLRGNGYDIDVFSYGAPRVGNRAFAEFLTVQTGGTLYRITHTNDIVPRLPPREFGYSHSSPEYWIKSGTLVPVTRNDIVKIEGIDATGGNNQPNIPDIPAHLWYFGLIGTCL", "type": "biochemical, A. oryzae", "settings": "for Critical Ratio, LIPOLASE: trioctanoin emulsions, lipase ~2 ppm; for R, critical (minimum activating molar) ratio, LIPOLASE: triolein emulsions", "description": "as §1, §2, §3, §4, §5"}, "[3]": {"test_system": "Enzyme Amano 68S", "type": "biochemical, P. sp.", "settings": "for Critical Ratio / Enzyme Activity: surfactant conc.: SDS 1 mM", "description": "as §1, §2, §3, §4, §5"}, "[4]": {"test_system": "enzyme from P. putida ATCC 53552 (lipase GC-1065)", "type": "biochemical, Pseudomonas putida", "description": "as §1, §2, §3, §4, §5"}, "[5]": {"settings": "Table III, trioctanoin, surfactant conc.: SDS 2 mM, C12 LAS 1 mM, Neodol 25-3S 2 mM, Neodol 25-9 0.5 mM, Surfonic JL80X 0.5 mM"}, "[6]": {"settings": "Table Summary, second block of lines (corresponds to triolein Tables VI-IX)"}, "[7]": {"settings": "triolein emulsions, high conc.: SDS 10 mM, C12 LAS 5 mM, Neodol 25-9 5 mM, Neodol 25-3S 5 mM, Surfonic JL-80X 2.5 mM"}, "[8]": {"settings": "Table IV, trioctanoin, C12 LAS 0.2 mM, Neodol 25-3S 0.5 mM, Neodol 25-9 0.5 mM, Surfonic JL80X 0.5 mM"}, "[9]": {"settings": "Table VIII, triolein, C12 LAS 0.5 mM, Neodol 25-3S 0.5 mM, Neodol 25-9 0.5 mM, Surfonic JL80X 2.5 mM"}, "[10]": {"settings": "Table II, trioctanoin, surfactant conc.: SDS 2 mM, C12 LAS 1 mM, Neodol 25-3S 2 mM, Neodol 25-9 0.5 mM, Surfonic JL80X 0.5 mM, Triton X100 2 mM"}, "[11]": {"settings": "Table VI, triolein, surfactant conc.: SDS 1 mM, C12 LAS 0.5 mM, Neodol 25-3S 1 mM, Neodol 25-9 0.5 mM, Surfonic JL80X 0.5 mM"}}, "data": [{"smiles": "CCCCCCCCCCCCc1ccc(S(=O)(=O)O)cc1", "note": "[C12 LAS]", "values": [{"measurement": "Critical Ratio", "setting": "[1]; [5]", "result": "5-20"}, {"measurement": "Enzyme Activity", "setting": "[1]; [5]", "result": "70 μmole H^+ released min^-1 mgE^"}, {"measurement": "critical ratio class, Amano P", "setting": "[1]; [6]", "result": "- (means a critical ratio of 10-100)"}, {"measurement": "Enzyme Activity", "setting": "[1]; Table VII, triolein, surfactant conc.: SDS 1 mM, others 0.5 mM", "result": "13 μmole H^+ released min^-1 mgE^"}, {"measurement": "Specific Activity determined from initial rates, AMANO P, High", "setting": "[1]; trioctanoin emulsions, high surfactant conc. as E43", "result": 70, "unit": "μeq acid/min.mg"}, {"measurement": "Critical Ratio, AMANO P, High", "setting": "[1]; trioctanoin emulsions, lipase ~2 ppm, high conc.: SDS 10 mM, C12 LAS 5 mM, Neodol 25-9 5 mM, Neodol 25-3S 20 mM, Surfonic JL-80X 5 mM", "result": "5-10"}, {"measurement": "Critical Ratio, AMANO P, Low", "setting": "[1]; trioctanoin emulsions, lipase ~2 ppm, low conc.: SDS 2 mM, C12 LAS 1 mM, Neodol 25-9 0.5 mM, Neodol 25-3S 2.0 mM, Surfonic JL-80X 0.5 mM", "result": "5-10"}, {"measurement": "Specific Activity determined from initial rates, AMANO P, Low", "setting": "[1]; trioctanoin emulsions, low surfactant conc. as E42", "result": 70, "unit": "μeq acid/min.mg"}, {"measurement": "Activity (specific hydrolysis activity from initial rates), AMANO P, High", "setting": "[1]; triolein emulsions, high conc. as E57", "result": 26, "unit": "μeq acid/min./mg"}, {"measurement": "R, critical (minimum activating molar) ratio, AMANO P, High", "setting": "[1]; [7]", "result": "10-20"}, {"measurement": "Activity (specific hydrolysis activity from initial rates), AMANO P, Low", "setting": "[1]; triolein emulsions, low conc. as E56", "result": 13, "unit": "μeq acid/min./mg"}, {"measurement": "R, critical (minimum activating molar) ratio, AMANO P, Low", "setting": "[1]; triolein emulsions, low conc.: SDS 1 mM, others 0.5 mM", "result": "10-20"}, {"measurement": "Critical Ratio", "setting": "[2]; Table IX, triolein, C12 LAS 0.5 mM", "result": "30-40"}, {"measurement": "critical ratio class, Lipolase", "setting": "[2]; [6]", "result": "- (means a critical ratio of 10-100)"}, {"measurement": "Critical Ratio", "setting": "[2]; Table V, trioctanoin, each surfactant 0.5 mM", "result": "0.5-1"}, {"measurement": "Critical Ratio, LIPOLASE", "setting": "[2]; surfactant 0.5 mM", "result": "0.5-1"}, {"measurement": "Critical Ratio, LIPOLASE", "setting": "[2]; surfactant 5 mM", "result": "0.5-1"}, {"measurement": "R, critical (minimum activating molar) ratio, LIPOLASE", "setting": "[2]; surfactant 0.5 mM", "result": "30-40"}, {"measurement": "R, critical (minimum activating molar) ratio, LIPOLASE", "setting": "[2]; surfactant 5.0", "result": "40-50"}, {"measurement": "Critical Ratio", "setting": "[3]; [8]", "result": "5-10"}, {"measurement": "Enzyme Activity", "setting": "[3]; [8]", "result": "175 μmole H^+ released min^-1 mgE^"}, {"measurement": "critical ratio class, Amano 68S", "setting": "[3]; [6]", "result": "- (means a critical ratio of 10-100)"}, {"measurement": "Critical Ratio", "setting": "[3]; [9]", "result": "10-20"}, {"measurement": "Enzyme Activity", "setting": "[3]; [9]", "result": "30 μmole H^+ released min^-1 mgE^"}, {"measurement": "Specific Activity determined from initial rates, AMANO 68S, High", "setting": "[3]; trioctanoin emulsions, high surfactant conc. as E45", "result": 200, "unit": "μeq acid/min.mg"}, {"measurement": "Critical Ratio, AMANO 68S, High", "setting": "[3]; trioctanoin emulsions, lipase ~2 ppm, high conc.: SDS 10 mM, C12 LAS 2 mM, Neodol 25-9 5 mM, Neodol 25-3S 10 mM, Surfonic JL-80X 5 mM", "result": "1-5"}, {"measurement": "Critical Ratio, AMANO 68S, Low", "setting": "[3]; trioctanoin emulsions, lipase ~2 ppm, low conc.: SDS 1 mM, C12 LAS 0.2 mM, Neodol 25-9 0.5 mM, Neodol 25-3S 0.5 mM, Surfonic JL-80X 0.5 mM", "result": "5-10"}, {"measurement": "Specific Activity determined from initial rates, AMANO 68S, Low", "setting": "[3]; trioctanoin emulsions, low surfactant conc. as E44", "result": 175, "unit": "μeq acid/min.mg"}, {"measurement": "Activity (specific hydrolysis activity from initial rates), AMANO 68S, High", "setting": "[3]; triolein emulsions, high conc. as E59", "result": 55, "unit": "μeq acid/min./mg"}, {"measurement": "R, critical (minimum activating molar) ratio, AMANO 68S, High", "setting": "[3]; triolein emulsions, high conc.: SDS 10 mM, C12 LAS 5 mM, Neodol 25-9 5 mM, Neodol 25-3S 5 mM, Surfonic JL-80X 2.5 mm", "result": "10-20"}, {"measurement": "Activity (specific hydrolysis activity from initial rates), AMANO 68S, Low", "setting": "[3]; triolein emulsions, low conc. as E58", "result": 30, "unit": "μeq acid/min./mg"}, {"measurement": "R, critical (minimum activating molar) ratio, AMANO 68S, Low", "setting": "[3]; triolein emulsions, low conc.: SDS 1 mM, C12 LAS 0.5 mM, Neodol 25-9 0.5 mM, Neodol 25-3S 0.5 mM, Surfonic JL-80X 2.5 mM", "result": "10-20"}, {"measurement": "Critical Ratio", "setting": "[4]; [10]", "result": "5-10"}, {"measurement": "Enzyme Activity", "setting": "[4]; [10]", "result": "250 μmole H^+ released min^-1 mgE^"}, {"measurement": "critical ratio class, enzyme From ATCC 53552", "setting": "[4]; [6]", "result": "0 (means a critical ratio of 1.0-10)"}, {"measurement": "Critical Ratio", "setting": "[4]; [11]", "result": "5-10"}, {"measurement": "Enzyme Activity", "setting": "[4]; [11]", "result": "50 μmole H^+ released min^-1 mgE^"}, {"measurement": "Critical Ratio", "setting": "[4]; Table XVIII, triolein, Pseudomonas putida enzyme, surfactant 0.5 mM", "result": "5-10"}, {"measurement": "Critical Ratio", "setting": "[4]; Table XVIII, triolein, Pseudomonas putida enzyme, surfactant 5.0 mM", "result": "1-5"}, {"measurement": "Specific Activity determined from initial rates, GC-1065, High", "setting": "[4]; trioctanoin emulsions, high surfactant conc. as E41", "result": 250, "unit": "μeq acid/min.mg"}, {"measurement": "Critical Ratio, GC-1065, High", "setting": "[4]; trioctanoin emulsions, lipase ~2 ppm, high surfactant conc.: SDS 10 mM, C12 LAS 5 mM, Neodol 25-9 5 mM, Neodol 25-3S 10 mM, Surfonic JL-80X 5 mM, Triton X-100 10 mM, C16 DAPS 10 mM", "result": "5-10"}, {"measurement": "Critical Ratio, GC-1065, Low", "setting": "[4]; trioctanoin emulsions, lipase ~2 ppm, low surfactant conc.: SDS 2 mM, C12 LAS 1 mM, Neodol 25-9 0.5 mM, Neodol 25-3S 2 mM, Surfonic JL-80X 0.5 mM, Triton X-100 2 mM, C16 DAPS 0.5 mM", "result": "2-10"}, {"measurement": "Specific Activity determined from initial rates, GC-1065, Low", "setting": "[4]; trioctanoin emulsions, low surfactant conc. as E40", "result": 250, "unit": "μeq acid/min.mg"}, {"measurement": "Activity (specific hydrolysis activity from initial rates), GC-1065, High", "setting": "[4]; triolein emulsions, high conc. as E55", "result": 60, "unit": "μeq acid/min./mg"}, {"measurement": "R, critical (minimum activating molar) ratio, GC-1065, High", "setting": "[4]; [7]", "result": "1-5"}, {"measurement": "Activity (specific hydrolysis activity from initial rates), GC-1065, Low", "setting": "[4]; triolein emulsions, low conc. as E54", "result": 50, "unit": "μeq acid/min./mg"}, {"measurement": "R, critical (minimum activating molar) ratio, GC-1065, Low", "setting": "[4]; triolein emulsions, low conc.: SDS 1 mM, C12 LAS 0.5 mM, Neodol 25-9 0.5 mM, Neodol 25-3S 1 mM, Surfonic JL-80X 0.5 mM", "result": "5-10"}]}]}
